# Assay: in vitro
# Details: human, hela cells, % viability
structure (smiles),measurement,setting,value
Cc1ccnc2nc(C(=O)OCC(=O)Nc3ccc4c(c3)CCC4)nn12 [CBK305853],"viability at 28.5 h, 10 µM",,82.1%
CN1CCN(CC(=O)Nc2ccc(OCc3ccccc3)cc2)CC1 [CBK264844],"viability at 28.5 h, 10 µM",,103%
O=C(CCn1c(CO)nc2ccccc21)c1ccccc1 [CBK296947],"viability at 28.5 h, 10 µM",,102%
CCC1CCCCN1C(=O)c1cccc(C(=O)OC)c1 (stereo not shown) [CBK083195],"viability at 28.5 h, 10 µM",,109%
c1ccc(C(NCc2nnc(-c3ccco3)o2)C2CCC2)cc1 (stereo not shown) [CBK305818],"viability at 28.5 h, 10 µM",,84.7%
O=C(c1cc(F)c(F)cc1F)N1CCC2(CCN(Cc3cccc(C(F)(F)F)c3)C2)C1 (stereo not shown) [CBK132130],"viability at 28.5 h, 10 µM",,102%
COc1ccc(N2C(=O)/C(=C/c3ccc(-c4cc(C(=O)O)ccc4Cl)o3)C(=O)NC2=S)cc1 [CBK263750],"viability at 28.5 h, 10 µM","bulk resorufin, single well",97.8%
Cc1cccc(S(=O)(=O)N2CCN(C)CC2)c1 [CBK097893],"viability at 28.5 h, 10 µM",,93.6%
Cc1c(-c2cc(C(=O)NC(C)C3CC4CCC3C4)on2)cnn1C (stereo not shown) [CBK281651],"viability at 28.5 h, 10 µM",,92.8%
CC(=O)Nc1cccc(Oc2nccnc2-c2cnn(Cc3ccccc3)c2)c1 [CBK107096],"viability at 28.5 h, 10 µM",,101%
CSc1ccc(-c2cnc3nc(N)ccc3c2)cc1 [CBK081169],"viability at 28.5 h, 10 µM",,85.2%
COc1cc(C=O)ccc1OC(=O)c1cn(-c2ccccc2)nc1-c1cccnc1 [CBK264255],"viability at 28.5 h, 10 µM",,89.6%
CN(C)CCCNC(=O)c1cnc2cc(Cl)ccc2c1O [CBK107354],"viability at 28.5 h, 10 µM",,94.4%
O=C1CCCN1CCOc1nccnc1-c1ccsc1 [CBK106759],"viability at 28.5 h, 10 µM",,89.7%
CC(C)c1ccc(CN2CCCN(c3cc(OCCc4c[nH]c5ccccc45)ncn3)CC2)cc1 [CBK083280T],"viability at 28.5 h, 10 µM",,106%
O=C(N[C@H]1CCN2C(=O)c3cc(-c4cccs4)ccc3NC(=O)[C@H]12)c1cccs1 [CBK289336],"viability at 28.5 h, 10 µM",,91.8%
O=C(CCN1C(=O)c2cccc([N+](=O)[O-])c2C1=O)Nc1ccccc1Cl [CBK263121],"viability at 28.5 h, 10 µM",,91.6%
O=S(=O)(N1CCOCC1)N1CCN(CC(O)COc2ccc3cc(Br)ccc3c2)CC1 (stereo not shown) [CBK268840],"viability at 28.5 h, 10 µM",,103%
CCn1cc(S(=O)(=O)NCc2ccccc2F)cn1 [CBK270306],"viability at 28.5 h, 10 µM",,91.6%
Cc1nc(CC(=O)N2CCC[C@@H]3[C@H]2CCCCc2ccccc2OCC(=O)N3C)cs1 [CBK292091],"viability at 28.5 h, 10 µM",,113%
COc1cc(CN2CCN(Cc3cccc([N+](=O)[O-])c3)CC2)cc(OC)c1 [CBK263156],"viability at 28.5 h, 10 µM",,95%
COCc1cn([C@H]2CO[C@H]3[C@@H]2OC[C@H]3OC)nn1 [CBK289490],"viability at 28.5 h, 10 µM",,89.9%
O=C(Cn1ccc2ccnc(-c3cccs3)c21)NCc1ccncc1 [CBK284734],"viability at 28.5 h, 10 µM",,86.5%
CC[C@H]1CN(C(=O)c2cccnc2)CC[C@H]1CC(=O)N1CCC(C(N)=O)CC1 [CBK288772],"viability at 28.5 h, 10 µM",,104%
CCOc1cc(OCC)cc(C(=O)N2CCC3(CC2)CC(=O)c2ccc(OCC)cc2O3)c1 [CBK168014],"viability at 28.5 h, 10 µM",,98.8%
CCOCCn1c(CN2CCOCC2)nc2c1c(=O)n(C)c(=O)n2C [CBK306062],"viability at 28.5 h, 10 µM",,105%
O=C(NCC1CCCO1)c1ccc(-n2ccnc2)c(-n2cccc2)c1 (stereo not shown) [CBK285356],"viability at 28.5 h, 10 µM",,98.2%
COc1ccccc1CN1CCC(Cc2ccccc2-c2ccccc2)(C(N)=O)CC1 [CBK285719],"viability at 28.5 h, 10 µM",,101%
Cn1c(C(=O)NCCc2ccc(S(=O)(=O)NC(=O)NC3CCCCC3)cc2)cc2ccccc21 [CBK011876],"viability at 28.5 h, 10 µM",,128%
COCCNc1nc(-c2cccc(N(C)C)c2)ccc1C(=O)NCCc1ccccn1 [CBK105938],"viability at 28.5 h, 10 µM",,90.7%
CC(=O)Nc1ccc(C(=O)N2CCCC(c3cccc(Cc4ccc(Cl)cc4)n3)C2)cc1 (stereo not shown) [CBK286134],"viability at 28.5 h, 10 µM",,99.9%
O=C(NCCN1CCOCC1)c1cc(-c2ccc(F)cc2)nc2ccc(Br)cc12 [CBK294450],"viability at 28.5 h, 10 µM",,89.9%
CCOC(=O)N1CCN(S(=O)(=O)c2cc(C(=O)O)c(Cl)cc2Cl)CC1 [CBK296975],"viability at 28.5 h, 10 µM",,96.2%
CCCCn1c(SCC(=O)NCC2(c3ccc4c(c3)OCCO4)CCCC2)n[nH]c1=O [CBK296736],"viability at 28.5 h, 10 µM",,99.6%

# Reference: paper PMC12040169 (PLOS Biology, 2025)
